The record followed here is patent US20220256847A1, “CELL DEATH INHIBITOR AND CELL DEATH INHIBITION METHOD” (UNIVERSITY OF TSUKUBA, priority 2019, published 2022).

What all share (format): in vivo
Data set [1] has as its system Cryj1 protein expressed in the leaves of Nicotiana benthamiana. Briefly: Cryj1 protein expression, Western blotting with anti-Cryj1 antibody. To be noted: Example 8: 200 mM spray once every two days; vacuum infiltration; 24° C. or 20° C., seven days. The protocol: Nicotiana benthamiana was immersed in the agroinfiltration liquid, and vacuum infiltrated by leaving it under a pressure of 736 mmHg for 5 minutes, and then by bringing the pressure back to atmospheric pressure, and thus the Cryj1 protein was expressed. Each plant was cultured at 24° C. or 20° C. for seven days after agroinfiltration. In addition, a 0 mM or 200 mM aqueous solution of sodium ascorbate was sprayed once every two days.
The soluble protein was then extracted from the leaves of each plant seven days after agroinfiltration. The prepared soluble protein was then subjected to SDS-PAGE and transferred to a PVDF membrane. Then, the Cryj1 protein was detected by Western blotting with an anti-Cryj1 antibody.
FIG. 18A is a photograph showing the results of Western blotting. In FIG. 18B, “P” indicates the result of SDS-PAGE and Western blotting of the Cryj1 protein derived from a natural product as a positive control, “M” indicates a molecular weight marker, “WT” indicates the result of the leaves of Nicotiana benthamiana without gene introduction, “24° C.” indicates the result of culturing at 24° C., “20° C.” indicates the result of culturing at 20° C., and “+AsA” indicates the result of spraying a 200 mM aqueous solution of sodium ascorbate once every two days.
Background: A western blot detects proteins with antibodies after separation by electrophoresis.

Data set [2] relates to PLP-GFP protein expressed in the leaves of Nicotiana benthamiana. The data set can be described thus: PLP-GFP protein expression level, Western blotting with anti-GFP antibody. The settings on record: Example 1: spray, concentration of 100 mM or higher, once every two days; 18° C., seven days. The procedure:
The soluble protein was then extracted from the region where the PLP-GFP protein was expressed in the leaves of each plant. The prepared soluble protein was then subjected to SDS-PAGE and transferred to a PVDF membrane. For comparison, 100 ng, 200 ng, and 300 ng of purified GFP proteins were also subjected to SDS-PAGE and transferred to a PVDF membrane. Then, the PLP-GFP protein was detected by Western blotting with an anti-GFP antibody. FIG. 5A is a photograph showing the results of Western blotting. In FIG. 5A, “NT” indicates the results of the leaves of Nicotiana benthamiana without gene introduction, and “FW” indicates fresh weight. In FIG. 5A, the band indicated by the arrowhead indicates the band of the PLP-GFP protein. In addition, the band near 30 kDa is the band of the GFP protein. FIG. 5B is a graph showing the results of quantifying an expression level of the PLP-GFP protein based on FIG. 5A.

Data set [3] deals with leaves of Nicotiana benthamiana. The data set can be described thus: Observation of gangrene (cell death induced by transient protein expression) in leaves after agroinfiltration and spraying of the substance. The protocol:
Nicotiana benthamiana was grown for 5 to 6 weeks under conditions of 25° C. and 16 hours in light and 8 hours in the dark. Each of the above-described vectors was introduced into an Agrobacterium tumefaciens GV3101 strain having a binary vector, and it was cultured at 28° C. until the stationary phase in L broth medium supplemented with 20 μM acetosyringone, 50 mg/L kanamycin, 30 mg/L gentamicin, and 30 mg/L rifampicin at 10 mM MES (pH 5.6).
Then, the culture solution was centrifuged to recover the Agrobacterium tumefaciens, and then suspended such that OD600 was approximately 1 by using an infiltration buffer (10 mM magnesium chloride, 10 mM MES, (pH 5.6), and 100 μM acetosyringone). The Agrobacterium tumefaciens was then left in this liquid for 2 to 3 hours.
After this, the suspension of Agrobacterium tumefaciens was infiltrated on the underside of the leaves of Nicotiana benthamiana by using a 1 mL syringe without a needle. Alternatively, in some cases, Nicotiana benthamiana was immersed in the Agrobacterium suspension (agroinfiltration liquid), and vacuum infiltrated by leaving it under a pressure of 736 mmHg for 5 minutes, and then bringing the pressure back to atmospheric pressure.
In addition, in some experiments, sodium ascorbate was added to the infiltration buffer. Expression induction of heat shock protein was performed by incubating the plant for 1 hour at 37° C. one day and three days after the infiltration. In the following Example, sodium L-ascorbate was used as sodium ascorbate.
Agroinfiltration using a syringe was performed to express GFP, hCu1, hFbxw7, PLP-GFP, and Cryj1 in the leaves of Nicotiana benthamiana. In the expression of PLP-GFP, a 1/100 amount of pBYR2HS-EGFP was simultaneously agroinfitrated. Each plant was cultured at 18° C. for seven days after agroinfiltration. In addition, 0, 30, 50, 100, 200, and 300 mM aqueous solutions of sodium ascorbate were sprayed once every two days.
The scale bar indicates 1 cm. […] In (a) to (f), the region surrounded by the dotted circle is a region expressing GFP, hCu1, hFbxw7, PLP-GFP, and Cryj1, respectively.
Agroinfiltration using a syringe was performed to express each of GFP, hCu1, and hFbxw7 in the leaves of Nicotiana benthamiana. Each plant was cultured at 25° C. for seven days after agroinfiltration. In addition, a 0 or 200 mM aqueous solution of sodium ascorbate was sprayed once every two days. The present Example was mainly different from Example 1 in the growth temperatures of the plant.
The scale bar indicates 1 cm.
Each plant was cultured at 18° C. for seven days after agroinfiltration.
Specifically, Nicotiana benthamiana was immersed in the agroinfiltration liquid, and vacuum infiltrated by leaving it under a pressure of 736 mmHg for 5 minutes, and then bringing the pressure back to atmospheric pressure, and thus the hFbxw7 protein was expressed. Each plant was cultured at 20° C. for seven days after agroinfiltration. In addition, 1 mM of each endoplasmic reticulum stress inhibitor was sprayed one day and three days after agroinfiltration.

In data set [4] the test system is hFbxw7 protein expressed in the leaves of Nicotiana benthamiana. Briefly: hFbxw7 protein expression, Western blotting with anti-FLAG antibody. To be noted: Example 2: 200 mM spray; 25° C.; three days after agroinfiltration. From the text:
The soluble protein was extracted from the region where the hFbxw7 protein was expressed in the leaves of each plant three days after agroinfiltration. The prepared soluble protein was then subjected to SDS-PAGE and transferred to a PVDF membrane. As described above, a FLAG tag was attached to the N-terminus of the hFbxw7 protein. Here, the hFbxw7 protein was detected by Western blotting with an anti-FLAG antibody. FIG. 9 is a photograph showing the results of Western blotting. FIG. 9 also illustrates the results of CBB staining. In FIG. 9, “NT” indicates the results of the leaves of Nicotiana benthamiana without gene introduction, and “FW” indicates fresh weight. In addition, “Mock” indicates the result of not spraying an aqueous solution of sodium ascorbate, and “AsA” indicates the result of spraying a 200 mM aqueous solution of sodium ascorbate. In addition, the band indicated by the arrowhead indicates the band of the hFbxw7 protein. In addition, “RbcL” indicates the Rubisco large subunit.

Data set [5] deals with GFP protein expressed in the leaves of Nicotiana benthamiana. The data set can be described thus: GFP protein expression level, SDS-PAGE and CBB staining of soluble leaf protein.
Data set [6] deals with hCu1 protein expressed in the leaves of Nicotiana benthamiana. The data set can be described thus: hCu1 protein expression level, Western blotting with anti-FLAG antibody. From the text: The soluble protein was then extracted from the region where the hCu1 protein was expressed in the leaves of each plant. The prepared soluble protein was then subjected to SDS-PAGE and transferred to a PVDF membrane. As described above, a FLAG tag was attached to the N-terminus of the hCu1 protein. Here, the hCu1 protein was detected by Western blotting with an anti-FLAG antibody.
FIG. 4A is a photograph showing the results of Western blotting. In FIG. 4A, “NT” indicates the results of the leaves of Nicotiana benthamiana without gene introduction, and “FW” indicates fresh weight. In FIG. 4A, the band indicated by the arrowhead indicates the band of the hCu1 protein. FIG. 4B is a graph showing the results of quantifying the expression level of the hCu1 protein based on FIG. 4A. […]
The soluble protein was then extracted from the leaves of each plant seven days after agroinfiltration. The prepared soluble protein was then subjected to SDS-PAGE and transferred to a PVDF membrane. As described above, a FLAG tag was attached to the N-terminus of the hCu1 protein. Here, the hCu1 protein was detected by Western blotting with an anti-FLAG antibody.
FIG. 13A is a photograph showing the results of Western blotting, and also illustrates the results of CBB staining. In FIG. 13A, “NT” indicates the results of the leaves of Nicotiana benthamiana without gene introduction, and “FW” indicates fresh weight. In addition, “vacuum” indicates the result of performing the vacuum infiltration, and “spray” indicates the result of spraying an aqueous solution of sodium ascorbate without adding sodium ascorbate to the agroinfiltration liquid. In addition, the band indicated by the arrowhead indicates the band of the hCu1 protein. In addition, “RbcL” indicates the Rubisco large subunit.
FIG. 13B is a graph showing the results of quantifying the expression level of the hCu1 protein based on FIG. 13A. In FIG. 13B, “vacuum” and “spray” indicate the same meaning as those in FIG. 13A.

Data set [7] has as its system Nicotiana benthamiana. Briefly: Observation of gangrene after adding the substance to the agroinfiltration liquid (vacuum infiltration). To be noted: hCu1, 25° C., seven days. The protocol:
Sodium ascorbate was added to the agroinfiltration liquid to examine whether gangrene can be inhibited. Specifically, Nicotiana benthamiana was immersed in the agroinfiltration liquid, and vacuum infiltrated by leaving it under a pressure of 736 mmHg for 5 minutes, and then bringing the pressure back to atmospheric pressure, and thus the hCu1 protein was expressed. Here, sodium ascorbate having a final concentration of 80 mM, 100 mM, or 200 mM was added to the agroinfiltration liquid. Each plant was cultured at 25° C. for seven days after agroinfiltration.
In (a) to (c), “vacuum” indicates the results of vacuum infiltration.
Sodium ascorbate was added to the agroinfiltration liquid to examine whether gangrene can be inhibited. Specifically, Nicotiana benthamiana was immersed in the agroinfiltration liquid, and vacuum infiltrated by leaving it under a pressure of 736 mmHg for 5 minutes, and then bringing the pressure back to atmospheric pressure, and thus the hCu1 protein was expressed. Here, sodium ascorbate having a final concentration of 0, 10, 20, 30, or 40 mM was added to the agroinfiltration liquid.
Sodium ascorbate was administered only once at the time of agroinfiltration. […]

Where [8] appears, read: Example 1: spray, concentration of 100 mM or higher, once every two days, 18° C., seven days.

SMILES strings stand for the structures.

For `O=C1O[C@H]([C@@H](O)CO)C([O-])=C1O.[Na+]` [sodium ascorbate, sodium L-ascorbate], in data set [1], the “expression of Cryj1 protein” value is given as “expression of Cryj1 protein was observed”. In addition, the “expression level of the PLP-GFP protein” value in data set [2] is given as “increase in expression level of the PLP-GFP protein”. For the same compound, the “gangrene (cell death induced by transient protein expression)” value in data set [3] (Example 1: sprayed with 100, 200 and 300 mM aqueous solutions once every two days, 18° C., seven days after agroinfiltration, hCu1, hFbxw7, PLP-GFP, Cryj1 regions) was “gangrene was inhibited”. For the same compound, in data set [3] (Example 2: 200 mM spray once every two days, 25° C., seven days after agroinfiltration, GFP, hCu1, hFbxw7), the gangrene result is given as “tendency of gangrene suppression”. For the same compound, the “gangrene in GFP-expressing leaves” value in data set [3] (Example 2: 200 mM spray, 25° C., culturing continued for seven days after agroinfiltration) was “tendency of gangrene reduction”. Further, the “expression of the hFbxw7 protein” value in data set [4] is on record as “expression of the hFbxw7 protein was observed”. Besides, in data set [5] (setting [8]), the “expression level of the GFP protein” value is listed as “increase in expression level of the GFP protein” and the “expression level of the Rubisco large subunit” value is listed as “increase in expression level of the Rubisco large subunit”. The “GFP protein expression level” value in data set [5] (Example 2: 200 mM spray, 25° C., three, five and seven days after agroinfiltration) is “GFP protein expression level sustenance”. In addition, the “expression level of the hCu1 protein” value in data set [6] (setting [8]) is recorded as “increase in expression level of the hCu1 protein”. In data set [6] (Example 1: spray, concentration of 200 mM or higher, 18° C., seven days), the “peak in the expression level of the hCu1 protein” value is on record as “peak in the expression level of the hCu1 protein was observed”. Besides, in data set [6] (Example 2: 200 mM spray, 25° C., seven days after agroinfiltration), the “expression of the hCu1 protein” value is reported as “expression of the hCu1 protein was maintained even seven days after agroinfiltration”. Besides, the “expression level of the hCu1 protein, time of peak” value in data set [6] (Example 2: 200 mM spray, 25° C., three days after agroinfiltration) was “peak in the expression level of the hCu1 protein was observed three days after agroinfiltration”. The “expression of the hCu1 protein” value in data set [6] (Example 4: final concentration of 40 mM added to the agroinfiltration liquid, once, vacuum infiltration, 25° C., seven days) is reported as “expression of the hCu1 protein similar to a case where a 200 mM aqueous solution of sodium ascorbate was sprayed”. Also, the “gangrene induced by the substance” value in data set [7] (Example 3: concentration of 80 mM or higher (80, 100, 200 mM) added to the agroinfiltration liquid) was “gangrene possibly caused by osmotic stress was induced”. The “gangrene of the plant” value in data set [7] (Example 4: added to the agroinfiltration liquid (0-40 mM), once) is on record as “reduce gangrene of the plant”.

With `O=C([O-])CC(O)(CC(=O)[O-])C(=O)[O-].[Na+].[Na+].[Na+]` [sodium citrate, reference compound], the “cell death induced by transient protein expression” value in data set [3] (Example 5: spray 30-300 mM once every two days, 18° C., seven days) is given as “cannot inhibit cell death induced by transient protein expression”. Further, in data set [3] (Example 5: spray, concentration of 100 mM or higher, once every two days, 18° C., seven days), the “state of the leaves” value is given as “leaves were in a wilted state”.
